Assay results as given in article PMC8222254, “Self-assembly of an anion receptor with metal-dependent kinase inhibition and potent in vitro anti-cancer properties” (Nature Communications, 2021).
Values joined by “and” are separate entries in the source; they are usually repeats but may differ in a detail not shown here. Equal entries are not always repeated.

Columns and labels:
Test in all cases: Kinase inhibition screen, cell-free 33P ATP assay at 10 μM
Format in all cases: biochemical
[1] = target: T1, 140 purified human kinases (Homo sapiens, UniProt P33981); conditions: TTK
T1 sequence (P33981 1-857): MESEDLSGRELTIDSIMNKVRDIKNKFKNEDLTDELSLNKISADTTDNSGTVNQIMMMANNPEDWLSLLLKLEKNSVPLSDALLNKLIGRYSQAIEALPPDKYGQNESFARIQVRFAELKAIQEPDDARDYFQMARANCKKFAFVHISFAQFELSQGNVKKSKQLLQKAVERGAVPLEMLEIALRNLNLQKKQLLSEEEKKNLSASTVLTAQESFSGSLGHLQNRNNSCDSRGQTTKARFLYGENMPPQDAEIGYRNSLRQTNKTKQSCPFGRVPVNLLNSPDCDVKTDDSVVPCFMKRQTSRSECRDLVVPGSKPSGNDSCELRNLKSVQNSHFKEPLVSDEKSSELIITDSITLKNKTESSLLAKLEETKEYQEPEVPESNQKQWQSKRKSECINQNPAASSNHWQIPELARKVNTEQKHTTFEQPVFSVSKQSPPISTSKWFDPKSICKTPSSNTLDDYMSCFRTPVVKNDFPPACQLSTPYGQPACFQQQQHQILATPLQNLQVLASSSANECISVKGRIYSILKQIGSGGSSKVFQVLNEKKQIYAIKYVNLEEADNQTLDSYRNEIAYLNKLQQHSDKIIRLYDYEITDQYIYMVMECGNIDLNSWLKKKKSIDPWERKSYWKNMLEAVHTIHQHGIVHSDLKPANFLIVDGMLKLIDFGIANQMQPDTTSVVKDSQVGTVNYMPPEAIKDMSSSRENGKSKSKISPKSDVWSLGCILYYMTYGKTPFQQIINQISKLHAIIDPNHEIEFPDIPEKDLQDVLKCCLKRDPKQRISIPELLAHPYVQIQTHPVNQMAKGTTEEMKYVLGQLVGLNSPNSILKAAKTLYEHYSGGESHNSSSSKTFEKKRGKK
How it was run: (§1)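 Radiometric ^33P ATP cell-free format with purified enzymes; both complexes run at 10 μM in duplicate, results plotted on a kinome map via HGNC symbols.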

[2] = target: T2, 140 purified human kinases (Homo sapiens, UniProt Q9UKI8)
T2 sequence (Q9UKI8 1-766): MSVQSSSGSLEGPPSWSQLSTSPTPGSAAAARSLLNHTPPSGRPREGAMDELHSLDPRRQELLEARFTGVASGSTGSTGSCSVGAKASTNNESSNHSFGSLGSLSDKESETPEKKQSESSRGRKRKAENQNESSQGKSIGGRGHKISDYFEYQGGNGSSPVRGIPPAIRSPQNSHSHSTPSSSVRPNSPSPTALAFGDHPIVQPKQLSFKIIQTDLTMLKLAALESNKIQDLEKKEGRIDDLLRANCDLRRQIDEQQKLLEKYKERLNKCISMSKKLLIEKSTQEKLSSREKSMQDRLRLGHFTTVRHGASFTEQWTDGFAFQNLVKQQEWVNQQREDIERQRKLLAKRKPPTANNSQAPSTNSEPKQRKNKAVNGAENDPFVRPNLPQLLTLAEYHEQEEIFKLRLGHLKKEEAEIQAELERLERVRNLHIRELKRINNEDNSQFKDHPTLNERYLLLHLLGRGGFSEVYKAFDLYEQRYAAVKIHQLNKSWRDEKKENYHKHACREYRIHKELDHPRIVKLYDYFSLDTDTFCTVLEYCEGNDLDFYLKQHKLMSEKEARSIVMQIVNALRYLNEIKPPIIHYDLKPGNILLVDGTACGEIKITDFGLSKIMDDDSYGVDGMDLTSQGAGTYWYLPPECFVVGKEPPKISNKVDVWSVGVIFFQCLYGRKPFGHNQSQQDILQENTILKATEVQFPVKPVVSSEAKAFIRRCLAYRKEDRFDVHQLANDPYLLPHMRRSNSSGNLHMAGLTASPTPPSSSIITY
How it was run: as §1

[3] = target: 140 purified human kinases (Homo sapiens, UniProt O75716)
140 purified human kinases (Homo sapiens, UniProt O75716), sequence (O75716 whole entry): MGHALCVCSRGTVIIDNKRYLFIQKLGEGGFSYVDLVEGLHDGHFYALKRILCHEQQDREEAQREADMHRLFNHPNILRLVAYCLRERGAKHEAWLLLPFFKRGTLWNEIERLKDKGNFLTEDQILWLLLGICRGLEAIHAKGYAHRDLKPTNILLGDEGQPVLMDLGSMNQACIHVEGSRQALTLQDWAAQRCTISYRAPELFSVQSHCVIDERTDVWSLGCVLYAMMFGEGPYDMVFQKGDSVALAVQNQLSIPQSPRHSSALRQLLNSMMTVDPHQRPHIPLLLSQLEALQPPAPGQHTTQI
How it was run: as §1

[4] = target: 140 purified human kinases (Homo sapiens, UniProt Q02750)
140 purified human kinases (Homo sapiens, UniProt Q02750), sequence (Q02750 whole entry): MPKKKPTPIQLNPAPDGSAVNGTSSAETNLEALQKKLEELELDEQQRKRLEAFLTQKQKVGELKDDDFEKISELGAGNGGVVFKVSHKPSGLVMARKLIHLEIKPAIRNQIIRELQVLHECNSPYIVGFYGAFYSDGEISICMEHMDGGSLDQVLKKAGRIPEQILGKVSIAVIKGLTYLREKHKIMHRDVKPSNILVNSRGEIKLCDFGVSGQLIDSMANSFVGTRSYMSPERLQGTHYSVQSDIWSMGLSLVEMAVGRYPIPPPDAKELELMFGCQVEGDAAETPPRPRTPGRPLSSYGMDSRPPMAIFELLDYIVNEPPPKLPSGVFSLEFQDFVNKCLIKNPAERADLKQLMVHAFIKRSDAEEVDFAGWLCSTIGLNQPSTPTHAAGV
How it was run: as §1

[Cu+2].[Cu+2].[Cu+2].c1ccc(-c2csc(NCCN(CCNc3nc(-c4ccccn4)cs3)CCNc3nc(-c4ccccn4)cs3)n2)nc1.c1ccc(-c2csc(NCCN(CCNc3nc(-c4ccccn4)cs3)CCNc3nc(-c4ccccn4)cs3)n2)nc1 [[L2Cu3]6+]
% Inhibition Run 1 [1]: 41.9%
% Inhibition Run 2 [1]: 45.5%
% Inhibition, Mean [1]: 44%
mean % activity [1]: 56%
% activity ([1]; Run 1): 58.1%
% activity ([1]; Run 2): 54.5%
% Activation, Mean value ([2]; TLK1): 16%
% Inhibition Run 1 ([2]; TLK1): -7.2%
% Inhibition Run 2 ([2]; TLK1): -24.2%
% Inhibition, Mean ([2]; TLK1): -16%
mean % activity ([2]; TLK1): 116%
% activity ([2]; TLK1, Run 1): 107.2%
% activity ([2]; TLK1, Run 2): 124.2%
% Activity Run 1 ([2]; TLK1, 10 µM): 107.20%
% Activity Run 2 ([2]; TLK1, 10 µM): 124.20%
% Inhibition Run 1 ([3]; MPSK1): 71.3%
% Inhibition Run 2 ([3]; MPSK1): 60%
% Inhibition, Mean ([3]; MPSK1): 66%
mean % activity ([3]; MPSK1): 34%
% activity ([3]; MPSK1, Run 1): 28.7%
% activity ([3]; MPSK1, Run 2): 40%
% Inhibition Run 1 ([4]; MKK1): 34%
% Inhibition Run 2 ([4]; MKK1): 8.9%
% Inhibition, Mean ([4]; MKK1): 21%
mean % activity ([4]; MKK1): 79%
% activity ([4]; MKK1, Run 1): 66%
% activity ([4]; MKK1, Run 2): 91.1%

CC(=O)[O-].CC(=O)[O-].CC(=O)[O-].CC(=O)[O-].CC(=O)[O-].CC(=O)[O-].[Zn+2].[Zn+2].[Zn+2].c1ccc(-c2csc(NCCN(CCNc3nc(-c4ccccn4)cs3)CCNc3nc(-c4ccccn4)cs3)n2)nc1.c1ccc(-c2csc(NCCN(CCNc3nc(-c4ccccn4)cs3)CCNc3nc(-c4ccccn4)cs3)n2)nc1 [[L2Zn3]6+]
% Inhibition, Mean [1]: 33%
% Inhibition, Run 1 / Run 2 [1]: 37% and 28%
mean % activity [1]: 67%
% activity ([1]; duplicate runs): 63% and 72%
% Inhibition, Mean ([2]; TLK1): -0.3%
mean % activity ([2]; TLK1): 100%
% activity ([2]; TLK1, duplicate runs): 92% and 109%
% Inhibition, Mean ([3]; MPSK1): 22%
mean % activity ([3]; MPSK1): 79%
% activity ([3]; MPSK1, duplicate runs): 71% and 86%
% Activation, Mean value ([4]; MKK1): 3%
% Inhibition, Mean ([4]; MKK1): -3%
% Inhibition, Run 1 / Run 2 ([4]; MKK1): -3%
mean % activity ([4]; MKK1): 103%
% activity ([4]; MKK1, duplicate runs): 103%
